Results on 9 compounds are retold here after ChEMBL document CHEMBL4145621, “4-Substituted Benzenesulfonamides Incorporating Bi/Tricyclic Moieties Act as Potent and Isoform-Selective Carbonic Anhydrase II/IX Inhibitors” (J Med Chem, 2018).

Structures are written as SMILES. pKi: −log10 of the molar value.

The target in one assay is Carbonic anhydrase 1 (Homo sapiens, UniProt P00915). The assay can be described thus: Inhibition of recombinant human cytosolic CA1 preincubated for 15 mins by phenol red dye-based stopped-flow CO2 hydration assay.
Carbonic anhydrase 1, sequence (P00915 whole entry): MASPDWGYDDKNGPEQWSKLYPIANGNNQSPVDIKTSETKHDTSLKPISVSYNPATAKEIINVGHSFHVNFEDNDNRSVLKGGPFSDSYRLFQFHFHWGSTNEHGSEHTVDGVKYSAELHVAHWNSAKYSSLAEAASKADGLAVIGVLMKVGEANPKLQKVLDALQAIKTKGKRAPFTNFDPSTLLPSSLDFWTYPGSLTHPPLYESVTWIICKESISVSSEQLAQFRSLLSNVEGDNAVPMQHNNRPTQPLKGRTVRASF
`NS(=O)(=O)c1ccc(-n2ncc3c2-c2cnc(-c4ccccc4)nc2CC3)cc1`: the pKi (usually the Ki on a negative log10 scale, so that one unit is a factor of ten) was less than 5.00.

In another assay the target is Carbonic anhydrase 9 (Homo sapiens, UniProt Q16790). The experiment in a line: Inhibition of recombinant human CA9 preincubated for 15 mins by phenol red dye-based stopped-flow CO2 hydration assay.
For `CC1(C)CC(=O)c2cnc(Nc3ccc(S(N)(=O)=O)cc3)nc2C1`, the negative logarithm of the Ki (pKi) is 9.05.
For `NS(=O)(=O)c1ccc(Nc2ncc3c(n2)CCCC3=O)cc1`, the pKi was 9.26.
On the same count and under the same terms, for `Cc1ncc2c(n1)CCc1cnn(-c3ccc(S(N)(=O)=O)cc3)c1-2` the value was 8.15.
As to `NS(=O)(=O)c1ccc(-n2ncc3c2CC(c2ccccc2)CC3=O)cc1` (stereo not given), the pKi was 9.14.
On the same count and under the same terms, for `NS(=O)(=O)c1ccc(-n2ncc3c2-c2cncnc2CC3)cc1` the value was 9.24; for `NS(=O)(=O)c1ccc(-n2ncc3c2CCCC3=O)cc1`, 8.28; for `CC1(C)CC(=O)c2cnn(-c3ccc(S(N)(=O)=O)cc3)c2C1`, 9.06.
On to `NS(=O)(=O)c1ccc(-n2ncc3c2-c2cnc(-c4ccccc4)nc2CC3)cc1`, for which the pKi was 8.14.
`NS(=O)(=O)c1ccc(Nc2ncc3c(n2)CC(c2ccccc2)CC3=O)cc1` (stereo not given): the pKi was 9.10.
